Reference: PubChem BioAssay (NCI)
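Assay format: 96-well plates, 48-hour exposure. TGI: concentration producing complete growth inhibition.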

Key:
Experiment in all cases: NCI-60 cell line screen, 48 h
UACC-62 melanoma = system: UACC-62 melanoma
HT29 colon = system: HT29 colon
OVCAR-4 ovarian = system: OVCAR-4 ovarian
NCI-H522 lung = system: NCI-H522 lung
M14 melanoma = system: M14 melanoma
DU-145 prostate = system: DU-145 prostate
MALME-3M melanoma = system: MALME-3M melanoma
MOLT-4 leukemia = system: MOLT-4 leukemia
ACHN renal = system: ACHN renal
SK-MEL-2 melanoma = system: SK-MEL-2 melanoma
SNB-75 CNS = system: SNB-75 CNS
TK-10 renal = system: TK-10 renal
T-47D breast = system: T-47D breast
RXF 393 renal = system: RXF 393 renal
EKVX NSCLC = system: EKVX NSCLC
SW-620 colon = system: SW-620 colon
SF-295 CNS = system: SF-295 CNS
UACC-257 melanoma = system: UACC-257 melanoma
K-562 leukemia = system: K-562 leukemia
MCF7 breast = system: MCF7 breast
CCRF-CEM leukemia = system: CCRF-CEM leukemia
A549 NSCLC = system: A549 NSCLC
HOP-92 NSCLC = system: HOP-92 NSCLC
SK-MEL-5 melanoma = system: SK-MEL-5 melanoma
MDA-N = system: MDA-N
SF-539 CNS = system: SF-539 CNS
MDA-MB-435 = system: MDA-MB-435
OVCAR-5 ovarian = system: OVCAR-5 ovarian
SK-OV-3 ovarian = system: SK-OV-3 ovarian
U251 CNS = system: U251 CNS
NCI/ADR-RES ovarian = system: NCI/ADR-RES ovarian
KM12 colon = system: KM12 colon
LOX IMVI melanoma = system: LOX IMVI melanoma
NCI-H460 lung = system: NCI-H460 lung
UO-31 renal = system: UO-31 renal
SK-MEL-28 melanoma = system: SK-MEL-28 melanoma
RPMI-8226 leukemia = system: RPMI-8226 leukemia
IGROV1 ovarian = system: IGROV1 ovarian
MDA-MB-231 breast = system: MDA-MB-231 breast
OVCAR-8 ovarian = system: OVCAR-8 ovarian
NCI-H23 lung = system: NCI-H23 lung
SR leukemia = system: SR leukemia
NCI-H226 lung = system: NCI-H226 lung
BT-549 breast = system: BT-549 breast
COLO 205 colon = system: COLO 205 colon
SN12C renal = system: SN12C renal
HOP-62 NSCLC = system: HOP-62 NSCLC
HCC-2998 colon = system: HCC-2998 colon
HL-60(TB) leukemia = system: HL-60(TB) leukemia
A498 renal = system: A498 renal
786-0 renal = system: 786-0 renal
OVCAR-3 ovarian = system: OVCAR-3 ovarian
CAKI-1 renal = system: CAKI-1 renal
PC-3 prostate = system: PC-3 prostate
SF-268 CNS = system: SF-268 CNS
HCT-116 colon = system: HCT-116 colon
HCT-15 colon = system: HCT-15 colon
SNB-19 CNS = system: SNB-19 CNS
HS 578T breast = system: HS 578T breast

SMILES: CCCCC1Cc2cc(OC)ccc2-c2n1c1cc(OC)ccc1[n+]2C (stereo unspecified) (tested in a mixture with another compound)
- TGI (UACC-62 melanoma): 3.03 µM
- TGI (HT29 colon): > 29.2 µM
- TGI (OVCAR-4 ovarian): 20.7 µM
- TGI (NCI-H522 lung): 6.85 µM
- TGI (M14 melanoma): 25.7 µM
- TGI (DU-145 prostate): > 64.1 µM
- TGI (MALME-3M melanoma): 9.71 µM
- TGI (MOLT-4 leukemia): > 51.6 µM
- TGI (ACHN renal): 48 µM
- TGI (SK-MEL-2 melanoma): 13 µM
- TGI (SNB-75 CNS): 87.6 µM
- TGI (TK-10 renal): 31.9 µM
- TGI (T-47D breast): 45.1 µM
- TGI (RXF 393 renal): 45.8 µM
- TGI (EKVX NSCLC): 20.2 µM
- TGI (SW-620 colon): > 55.5 µM
- TGI (SF-295 CNS): > 37.3 µM
- TGI (UACC-257 melanoma): > 34.3 µM
- TGI (K-562 leukemia): > 62.8 µM
- TGI (MCF7 breast): 15.8 µM
- TGI (CCRF-CEM leukemia): 25.3 µM
- TGI (A549 NSCLC): > 45.7 µM
- TGI (HOP-92 NSCLC): 7.02 µM
- TGI (SK-MEL-5 melanoma): 3.76 µM
- TGI (MDA-N): 11.1 µM
- TGI (SF-539 CNS): > 44.9 µM
- TGI (MDA-MB-435): 3.79 µM
- TGI (OVCAR-5 ovarian): 68.2 µM
- TGI (SK-OV-3 ovarian): 54.1 µM
- TGI (U251 CNS): > 26.5 µM
- TGI (NCI/ADR-RES ovarian): > 100 µM
- TGI (KM12 colon): 10.7 µM
- TGI (LOX IMVI melanoma): 14.3 µM
- TGI (NCI-H460 lung): 18.1 µM
- TGI (UO-31 renal): 30.9 µM
- TGI (SK-MEL-28 melanoma): 25.8 µM
- TGI (RPMI-8226 leukemia): 2.17 µM
- TGI (IGROV1 ovarian): 6.61 µM
- TGI (MDA-MB-231 breast): 20.6 µM
- TGI (OVCAR-8 ovarian): 49 µM
- TGI (NCI-H23 lung): > 39.9 µM
- TGI (SR leukemia): 12.1 µM
- TGI (NCI-H226 lung): 24.2 µM
- TGI (BT-549 breast): 79 µM
- TGI (COLO 205 colon): 1690 nM
- TGI (SN12C renal): 7.97 µM
- TGI (HOP-62 NSCLC): > 61.7 µM
- TGI (HCC-2998 colon): 8.51 µM
- TGI (HL-60(TB) leukemia): 1710 nM
- TGI (A498 renal): 83.2 µM
- TGI (786-0 renal): > 100 µM
- TGI (OVCAR-3 ovarian): > 72.1 µM
- TGI (CAKI-1 renal): > 100 µM
- TGI (PC-3 prostate): 30.4 µM
- TGI (SF-268 CNS): 6.09 µM
- TGI (HCT-116 colon): > 39.9 µM
- TGI (HCT-15 colon): > 56.7 µM

SMILES: CC1=C2CC(C)(C)CC(=O)C2(C)CCC1=O (stereo unspecified)
- TGI (UACC-62 melanoma): > 100 µM
- TGI (HT29 colon): > 100 µM
- TGI (OVCAR-4 ovarian): > 100 µM
- TGI (NCI-H522 lung): > 100 µM
- TGI (M14 melanoma): > 100 µM
- TGI (DU-145 prostate): > 100 µM
- TGI (MALME-3M melanoma): > 100 µM
- TGI (MOLT-4 leukemia): > 100 µM
- TGI (ACHN renal): > 100 µM
- TGI (SK-MEL-2 melanoma): > 100 µM
- TGI (SNB-75 CNS): > 100 µM
- TGI (TK-10 renal): > 100 µM
- TGI (T-47D breast): > 100 µM
- TGI (EKVX NSCLC): > 100 µM
- TGI (SW-620 colon): > 100 µM
- TGI (SF-295 CNS): > 100 µM
- TGI (UACC-257 melanoma): > 100 µM
- TGI (K-562 leukemia): > 100 µM
- TGI (MCF7 breast): > 100 µM
- TGI (CCRF-CEM leukemia): > 100 µM
- TGI (A549 NSCLC): > 100 µM
- TGI (SK-MEL-5 melanoma): > 100 µM
- TGI (MDA-N): > 100 µM
- TGI (SF-539 CNS): > 100 µM
- TGI (OVCAR-5 ovarian): > 100 µM
- TGI (SK-OV-3 ovarian): > 100 µM
- TGI (U251 CNS): > 100 µM
- TGI (NCI/ADR-RES ovarian): > 100 µM
- TGI (KM12 colon): > 100 µM
- TGI (LOX IMVI melanoma): > 100 µM
- TGI (NCI-H460 lung): > 100 µM
- TGI (UO-31 renal): > 100 µM
- TGI (SK-MEL-28 melanoma): > 100 µM
- TGI (RPMI-8226 leukemia): 13.8 µM
- TGI (SNB-19 CNS): > 100 µM
- TGI (IGROV1 ovarian): > 100 µM
- TGI (MDA-MB-231 breast): > 100 µM
- TGI (OVCAR-8 ovarian): > 100 µM
- TGI (NCI-H23 lung): > 100 µM
- TGI (SR leukemia): > 100 µM
- TGI (NCI-H226 lung): > 100 µM
- TGI (BT-549 breast): > 100 µM
- TGI (COLO 205 colon): > 100000 nM
- TGI (SN12C renal): > 100 µM
- TGI (HS 578T breast): > 100 µM
- TGI (HOP-62 NSCLC): > 100 µM
- TGI (HCC-2998 colon): > 100 µM
- TGI (HL-60(TB) leukemia): > 100000 nM
- TGI (786-0 renal): > 100 µM
- TGI (CAKI-1 renal): > 100 µM
- TGI (PC-3 prostate): > 100 µM
- TGI (SF-268 CNS): > 100 µM
- TGI (HCT-116 colon): > 100 µM
- TGI (HCT-15 colon): > 100 µM
